Measured values from US9326506B2, “Preparation method, agricultural composition and applications of natural brassinolide analogs” (CHENGDU NEWSUN CROPSCIENCE CO., LTD, priority 2012, dated 2016).

Test system: rice
Test: Low temperature assay on rice seedlings
Type: in vivo
Protocol: According to a low temperature assay, we measured parameters including plant height, number of leaf, area of leaf, number of tiller, weight of root at low temperature to completely determine effects of the natural brassinolide analogues on the resistance to low temperature of a plant.
The natural brassinolide analogues, BR1, BR2, BR3, BR4, BR5 and BR6, used herein, were those prepared by the method of Example 1. Respectively the analogues were dissolved into 95% (V/V) ethanol solution, and then diluted with pure water to 1 mg/L, 0.1 mg/L, 0.01 mg/L, 0.001 mg/L and 0.0001 mg/L. In addition, pure water was used as a control.
After rice seeds were disinfected by using 5% sodium hypochlorite solution treatment, they were rinsed with distilled water until their pH>7, placed into a petri dish in a dark incubator, and cultured by using water at 30° C.±2° C. for 9 days. Then respectively the nine-day-old etiolated seedlings of rice were immersed in the above solutions containing different concentrations of the natural brassinolide analogues or pure water, and cultured at the temperature of 1° C., 2° C., 3° C., 4° C. and 5° C. for 24 hr. The parameters including plant height, area of leaf and weight of root after 3, 6, 9 and 12 days and number of leaf and number of tiller after 12 days were measured.

Q: For `CC(C)[C@H](C)[C@@H](O)[C@H](O)[C@@H](C)[C@H]1CCC2C3CC(=O)C4C[C@H](O)CC[C@]4(C)C3CC[C@@]21C` (stereo partly shown) [BR4], which Area of leaf (0.001 mg/l, 2 °C, 6 days) is on record?
A: 11.6 cm^2

Q: And the Height (0.001 mg/l, 2 °C, 6 days)?
A: 7 cm

Q: And the Weight of root (0.001 mg/l, 2 °C, 6 days)?
A: 3.0 g

Q: And the Area of leaf (0.001 mg/l, 2 °C, 9 days)?
A: 12 cm^2

Q: And the Height (0.001 mg/l, 2 °C, 9 days)?
A: 7.1 cm

Q: What about the Weight of root (0.001 mg/l, 2 °C, 9 days) of the same compound?
A: 3 g

Q: And the Area of leaf (0.001 mg/l, 2 °C, 12 days)?
A: 13.1 cm^2

Q: What about the Height (0.001 mg/l, 2 °C, 12 days) of the same compound?
A: 7.3 cm

Q: And the Number of leaf (0.001 mg/l, 2 °C, 12 days)?
A: 3

Q: And the Number of tiller (0.001 mg/l, 2 °C, 12 days)?
A: 3

Q: And the Weight of root (0.001 mg/l, 2 °C, 12 days)?
A: 3.9 g

Q: What about the Area of leaf (0.001 mg/l, 3 °C, 3 days) of the same compound?
A: 10 cm^2

Q: What about the Height (0.001 mg/l, 3 °C, 3 days) of the same compound?
A: 7 cm

Q: And the Weight of root (0.001 mg/l, 3 °C, 3 days)?
A: 2.5 g

Q: What about the Area of leaf (0.001 mg/l, 3 °C, 6 days) of the same compound?
A: 12 cm^2

Q: And the Height (0.001 mg/l, 3 °C, 6 days)?
A: 7.2 cm

Q: What about the Weight of root (0.001 mg/l, 3 °C, 6 days) of the same compound?
A: 2.6 g

Q: What about the Area of leaf (0.001 mg/l, 3 °C, 9 days) of the same compound?
A: 12.2 cm^2

Q: What about the Height (0.001 mg/l, 3 °C, 9 days) of the same compound?
A: 7.4 cm

Q: And the Weight of root (0.001 mg/l, 3 °C, 9 days)?
A: 2.9 g

Q: What about the Area of leaf (0.001 mg/l, 3 °C, 12 days) of the same compound?
A: 13 cm^2

Q: And the Height (0.001 mg/l, 3 °C, 12 days)?
A: 7.5 cm

Q: And the Number of leaf (0.001 mg/l, 3 °C, 12 days)?
A: 3

Q: What about the Number of tiller (0.001 mg/l, 3 °C, 12 days) of the same compound?
A: 2

Q: What about the Weight of root (0.001 mg/l, 3 °C, 12 days) of the same compound?
A: 2.9 g

Q: And the Area of leaf (0.001 mg/l, 4 °C, 3 days)?
A: 10 cm^2

Q: And the Height (0.001 mg/l, 4 °C, 3 days)?
A: 7.1 cm

Q: What about the Weight of root (0.001 mg/l, 4 °C, 3 days) of the same compound?
A: 2.5 g

Q: And the Area of leaf (0.001 mg/l, 4 °C, 6 days)?
A: 12 cm^2

Q: And the Height (0.001 mg/l, 4 °C, 6 days)?
A: 7.3 cm

Q: And the Weight of root (0.001 mg/l, 4 °C, 6 days)?
A: 2.6 g

Q: What about the Area of leaf (0.001 mg/l, 4 °C, 9 days) of the same compound?
A: 13 cm^2

Q: And the Height (0.001 mg/l, 4 °C, 9 days)?
A: 7.4 cm

Q: And the Weight of root (0.001 mg/l, 4 °C, 9 days)?
A: 2.9 g

Q: And the Area of leaf (0.001 mg/l, 4 °C, 12 days)?
A: 13.1 cm^2

Q: And the Height (0.001 mg/l, 4 °C, 12 days)?
A: 7.5 cm

Q: What about the Number of leaf (0.001 mg/l, 4 °C, 12 days) of the same compound?
A: 3

Q: And the Number of tiller (0.001 mg/l, 4 °C, 12 days)?
A: 2

Q: What about the Weight of root (0.001 mg/l, 4 °C, 12 days) of the same compound?
A: 2.9 g

Q: What about the Area of leaf (0.001 mg/l, 5 °C, 3 days) of the same compound?
A: 10.2 cm^2

Q: What about the Height (0.001 mg/l, 5 °C, 3 days) of the same compound?
A: 7.2 cm

Q: What about the Weight of root (0.001 mg/l, 5 °C, 3 days) of the same compound?
A: 2.8 g

Q: What about the Area of leaf (0.001 mg/l, 5 °C, 6 days) of the same compound?
A: 14 cm^2

Q: And the Height (0.001 mg/l, 5 °C, 6 days)?
A: 7.4 cm

Q: What about the Weight of root (0.001 mg/l, 5 °C, 6 days) of the same compound?
A: 2.9 g

Q: What about the Area of leaf (0.001 mg/l, 5 °C, 9 days) of the same compound?
A: 15.4 cm^2

Q: What about the Height (0.001 mg/l, 5 °C, 9 days) of the same compound?
A: 7.4 cm

Q: What about the Weight of root (0.001 mg/l, 5 °C, 9 days) of the same compound?
A: 3.0 g

Q: And the Area of leaf (0.001 mg/l, 5 °C, 12 days)?
A: 16 cm^2

Q: And the Height (0.001 mg/l, 5 °C, 12 days)?
A: 7.9 cm

Q: What about the Number of leaf (0.001 mg/l, 5 °C, 12 days) of the same compound?
A: 3

Q: What about the Number of tiller (0.001 mg/l, 5 °C, 12 days) of the same compound?
A: 3

Q: What about the Weight of root (0.001 mg/l, 5 °C, 12 days) of the same compound?
A: 3.7 g

Q: And the Area of leaf (0.01 mg/l, 1 °C, 3 days)?
A: 9.2 cm^2

Q: And the Height (0.01 mg/l, 1 °C, 3 days)?
A: 6.7 cm

Q: What about the Weight of root (0.01 mg/l, 1 °C, 3 days) of the same compound?
A: 2.8 g

Q: And the Area of leaf (0.01 mg/l, 1 °C, 6 days)?
A: 11.6 cm^2

Q: And the Height (0.01 mg/l, 1 °C, 6 days)?
A: 7.1 cm

Q: And the Weight of root (0.01 mg/l, 1 °C, 6 days)?
A: 3.0 g

Q: What about the Area of leaf (0.01 mg/l, 1 °C, 9 days) of the same compound?
A: 12.4 cm^2

Q: And the Height (0.01 mg/l, 1 °C, 9 days)?
A: 7.4 cm

Q: What about the Weight of root (0.01 mg/l, 1 °C, 9 days) of the same compound?
A: 3.1 g

Q: What about the Area of leaf (0.01 mg/l, 1 °C, 12 days) of the same compound?
A: 13.6 cm^2

Q: And the Height (0.01 mg/l, 1 °C, 12 days)?
A: 7.5 cm

Q: What about the Number of leaf (0.01 mg/l, 1 °C, 12 days) of the same compound?
A: 3

Q: And the Number of tiller (0.01 mg/l, 1 °C, 12 days)?
A: 3

Q: And the Weight of root (0.01 mg/l, 1 °C, 12 days)?
A: 3.9 g

Q: And the Area of leaf (0.01 mg/l, 2 °C, 3 days)?
A: 10 cm^2

Q: What about the Height (0.01 mg/l, 2 °C, 3 days) of the same compound?
A: 7 cm

Q: And the Weight of root (0.01 mg/l, 2 °C, 3 days)?
A: 2.8 g

Q: What about the Area of leaf (0.01 mg/l, 2 °C, 6 days) of the same compound?
A: 11 cm^2

Q: What about the Height (0.01 mg/l, 2 °C, 6 days) of the same compound?
A: 7.2 cm

Q: What about the Weight of root (0.01 mg/l, 2 °C, 6 days) of the same compound?
A: 3 g

Q: And the Area of leaf (0.01 mg/l, 2 °C, 9 days)?
A: 12.5 cm^2

Q: What about the Height (0.01 mg/l, 2 °C, 9 days) of the same compound?
A: 7.4 cm

Q: What about the Weight of root (0.01 mg/l, 2 °C, 9 days) of the same compound?
A: 3 g

Q: And the Area of leaf (0.01 mg/l, 2 °C, 12 days)?
A: 13.4 cm^2

Q: What about the Height (0.01 mg/l, 2 °C, 12 days) of the same compound?
A: 7.5 cm

Q: What about the Number of leaf (0.01 mg/l, 2 °C, 12 days) of the same compound?
A: 3

Q: What about the Number of tiller (0.01 mg/l, 2 °C, 12 days) of the same compound?
A: 3

Q: And the Weight of root (0.01 mg/l, 2 °C, 12 days)?
A: 3.2 g

Q: And the Area of leaf (0.01 mg/l, 3 °C, 3 days)?
A: 10.2 cm^2

Q: And the Height (0.01 mg/l, 3 °C, 3 days)?
A: 7 cm

Q: And the Weight of root (0.01 mg/l, 3 °C, 3 days)?
A: 2.5 g

Q: And the Area of leaf (0.01 mg/l, 3 °C, 6 days)?
A: 12 cm^2

Q: What about the Height (0.01 mg/l, 3 °C, 6 days) of the same compound?
A: 7.3 cm

Q: What about the Weight of root (0.01 mg/l, 3 °C, 6 days) of the same compound?
A: 2.6 g

Q: What about the Area of leaf (0.01 mg/l, 3 °C, 9 days) of the same compound?
A: 12.1 cm^2
